Format in all cases: cell-based
The subject of test [1] is Acinetobacter baumanii/haemolyticus: Multidrug-resistant clinical isolate (AB-3167). The test is described as follows: MIC determination (CLSI), strain AB-3167. Particulars: unit assumed. In short, it runs like this:
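Using the multidrug-resistant Acinetobacter baumanii/haemolyticus clinical isolate AB-3167, minimum inhibitory concentrations were determined following CLSI dilution susceptibility standards.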

The subject of test [2] is Escherichia coli EC-1: VOGEL, mouse virulent. Put plainly: MIC determination (CLSI), strain EC-1. Particulars: Escherichia coli EC-1, VOGEL, mouse virulent; unit assumed. In short, it runs like this:
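The mouse-virulent VOGEL isolate of E. coli, EC-1, served as test organism. Minimum inhibitory concentration was measured by CLSI dilution methodology (M7-A7; M100-S18 standards).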

The test system of test [3] is Pseudomonas aeruginosa UI-18: Wild-type (PA-7). The test is described as follows: MIC determination (CLSI), strain PA-7. Particulars: Pseudomonas aeruginosa UI-18, wild-type; unit assumed. In short, it runs like this: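 Strain tested was P. aeruginosa UI-18, a wild-type isolate labelled PA-7. Minimum inhibitory concentrations followed CLSI dilution methodology for aerobically growing bacteria (M7-A7, M100-S18).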

The structures appear in SMILES notation.

Consider `C[C@H](O)c1ccc2cc(-c3ccn(CC[C@](C)(C(=O)NO)S(C)(=O)=O)c(=O)c3)ccc2c1` [Example 68-N, (2R)-N-hydroxy-4-[4-{6-[(1S)-1-hydroxyethyl]-2-naphthyl}-2-oxopyridin-1(2H)-yl]-2-methyl-2-(methylsulfonyl)butanamide], for which the AB-3167 (MIC) in test [1] is greater than 64 µg/mL. The EC-1 (MIC) in test [2] is 0.5 µg/mL. In test [3], this molecule registered a PA-7 (MIC) of 2 µg/mL.

For the molecule `CC(CCn1ccc(-c2ccc3c(c2)CCC(O)C3)cc1=O)(C(=O)NO)S(C)(=O)=O` (stereo not drawn) [Example 68-O, N-hydroxy-4-[4-(6-hydroxy-5,6,7,8-tetrahydronaphthalen-2-yl)-2-oxopyridin-1(2H)-yl]-2-methyl-2-(methylsulfonyl)butanamide], the AB-3167 (MIC) in test [1] was greater than 64 µg/mL. Moreover, in test [2], the EC-1 (MIC) was found to be 16 µg/mL. Also, in test [3], the PA-7 (MIC) was 8 µg/mL.

`C[C@@](CCn1ccc(-c2ccc(-c3ccccc3)s2)cc1=O)(C(=O)NO)S(C)(=O)=O` [Example 68-P, (2R)-N-hydroxy-2-methyl-2-(methylsulfonyl)-4-[2-oxo-4-(5-phenyl-2-thienyl)pyridin-1(2H)-yl]butanamide] gave an AB-3167 (MIC) in test [1] greater than 64 µg/mL. The molecule also gave an EC-1 (MIC) in test [2] of 0.06 µg/mL. The molecule also showed a PA-7 (MIC) in test [3] of 8 µg/mL.

Take `CC(O)c1ccc(-c2ccn(CCC(C)(C(=O)NO)S(C)(=O)=O)c(=O)c2)cc1` (stereo not drawn) [Example 68-Q, N-hydroxy-4-{4-[4-(1-hydroxyethyl)phenyl]-2-oxopyridin-1(2H)-yl}-2-methyl-2-(methylsulfonyl)butanamide]: the AB-3167 (MIC) in test [1] was greater than 64 µg/mL. In test [2], this molecule came in with an EC-1 (MIC) of 64 µg/mL. Further, in test [3], the PA-7 (MIC) came to 16 µg/mL.

Molecule `Cn1c(-c2ccn(CCC(C)(C(=O)NO)S(C)(=O)=O)c(=O)c2)cc2ccccc21` (stereo not drawn) [Example 68-R, N-hydroxy-2-methyl-4-[4-(1-methyl-1H-indol-2-yl)-2-oxopyridin-1(2H)-yl]-2-(methylsulfonyl)butanamide] showed an AB-3167 (MIC) in test [1] greater than 64 µg/mL. In addition, the EC-1 (MIC) in test [2] was found to be 4 µg/mL. Also, the PA-7 (MIC) in test [3] came out at 8 µg/mL.

The molecule `CC(CCn1ccc(OCCC2CCCC2)cc1=O)(C(=O)NO)S(C)(=O)=O` (stereo not drawn) [Example 68-S, 4-[4-(2-cyclopentylethoxy)-2-oxopyridin-1(2H)-yl]-N-hydroxy-2-methyl-2-(methylsulfonyl)butanamide] returned an AB-3167 (MIC) in test [1] of 64 µg/mL. Further, the EC-1 (MIC) in test [2] came out at 16 µg/mL. This molecule gave a PA-7 (MIC) in test [3] of 32 µg/mL.

With `CC(CCn1ccc(OCCc2ccccc2)cc1=O)(C(=O)NO)S(C)(=O)=O` (stereo not drawn) [Example 68-U, N-hydroxy-2-methyl-2-(methylsulfonyl)-4-[2-oxo-4-(2-phenylethoxy)pyridin-1(2H)-yl]butanamide], the AB-3167 (MIC) in test [1] was greater than 64 µg/mL. Besides, in test [2], the EC-1 (MIC) came out at 32 µg/mL. In test [3], this molecule registered a PA-7 (MIC) of 64 µg/mL.

`CC(=O)c1ccc(-c2ccn(CCC(C)(C(=O)NO)S(C)(=O)=O)c(=O)c2)cc1` (stereo not drawn) [Example 68-V, 4-[4-(4-acetylphenyl)-2-oxopyridin-1(2H)-yl]-N-hydroxy-2-methyl-2-(methylsulfonyl)butanamide] registered an AB-3167 (MIC) in test [1] greater than 64 µg/mL. The molecule further showed an EC-1 (MIC) in test [2] of 4 µg/mL. Also, in test [3], the PA-7 (MIC) worked out at 4 µg/mL.
